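Interpolation was linear, between the two tested concentrations surrounding the appropriate level; five concentrations were tested over 48 hours in 96-well plates. The concentration for 50% growth inhibition is given as GI50.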 The source made the active and inactive calls. No stated cut-off is given here; in the data, active = GI50 up to about 1.1 µM and inactive = higher.
Experiments:
Assay in all cases: NCI-60 cell line screen, 48 h
KM-20L2 = system: KM-20L2
LXFL 529 = system: LXFL 529
DMS-114 = system: DMS-114
M19-MEL = system: M19-MEL
XF498 = system: XF498
SNB-78 = system: SNB-78
DMS-273 = system: DMS-273
RXF 631 = system: RXF 631
HOP-18 = system: HOP-18

| SMILES | GI50 (KM-20L2) | GI50 (LXFL 529) | GI50 (DMS-114) | GI50 (M19-MEL) | GI50 (XF498) | GI50 (SNB-78) | GI50 (DMS-273) | GI50 (RXF 631) | GI50 (HOP-18) |
| --- | --- | --- | --- | --- | --- | --- | --- | --- | --- |
| O=C(CCc1nnc(S)[nH]1)NC12CC3CC(CC(C3)C1)C2 | > 100 µM (inactive) | > 100 µM (inactive) | > 100 µM (inactive) | > 100 µM (inactive) | > 100 µM (inactive) | > 100 µM (inactive) | > 100 µM (inactive) | > 100 µM (inactive) | > 100 µM (inactive) |
| O=C1/C(=C/c2ccccc2Cl)COc2ccccc21 | 18.5 µM (inactive) | 17.5 µM (inactive) | 18 µM (inactive) | 18.6 µM (inactive) | 15.6 µM (inactive) | 19.3 µM (inactive) | 15 µM (inactive) | 19.2 µM (inactive) | 11.8 µM (inactive) |
| CCC1(O)C(=O)OCc2c1cc1n(c2=O)Cc2cc3ccc(C=O)cc3nc2-1 (configuration not stated) | 5.68 µM (inactive) | 12.8 µM (inactive) | 0.607 µM (active) | 2.89 µM (inactive) | 2.7 µM (inactive) | 19.9 µM (inactive) | 0.484 µM (active) | 2.38 µM (inactive) | 3.47 µM (inactive) |
| O=C(CC1=Nc2nnc(-c3nnc4n3C(=O)C(CC(=O)c3cccnc3)=N4)n2C1=O)c1cccnc1 | > 100 µM (inactive) | > 100 µM (inactive) | > 100 µM (inactive) | > 100 µM (inactive) | – | > 100 µM (inactive) | > 100 µM (inactive) | > 100 µM (inactive) | – |
| O=CCCCC(Sc1ccccc1)Sc1ccccc1 | 39.5 µM (inactive) | 13 µM (inactive) | 23.9 µM (inactive) | 18.1 µM (inactive) | 19 µM (inactive) | 15.3 µM (inactive) | 17.3 µM (inactive) | 20.6 µM (inactive) | – |
| COc1ccc(CC(C)N)cc1 (configuration not stated) [PARA-METHOXYAMPHETAMINE] | > 100 µM (inactive) | > 100 µM (inactive) | > 100 µM (inactive) | – | > 100 µM (inactive) | > 100 µM (inactive) | > 100 µM (inactive) | > 100 µM (inactive) | > 100 µM (inactive) |
| c1ccc2c3nc(C4CCCC4)nc-3c(NC3CCCC3)[nH]c2c1 | 5 µM (inactive) | 8.32 µM (inactive) | 17.8 µM (inactive) | 13.2 µM (inactive) | 19.6 µM (inactive) | 45.3 µM (inactive) | 8.43 µM (inactive) | – | 16 µM (inactive) |
| N#CCCN(CCC#N)c1ccc(/C=N\c2ccc(F)cc2)cc1 | 0.152 µM (active) | 0.121 µM (active) | 13.8 µM (inactive) | 1.63 µM (inactive) | > 100 µM (inactive) | > 100 µM (inactive) | 4.61 µM (inactive) | > 45.8 µM (inactive) | > 100 µM (inactive) |
| CC(C)N(O)C(=N)c1ccccc1 | > 100 µM (inactive) | > 100 µM (inactive) | > 100 µM (inactive) | > 100 µM (inactive) | – | > 100 µM (inactive) | – | – | 0.0473 µM (active) |
| CS(=O)(=O)N(CCC#N)c1ccc(/C=C2\N=C(c3ccccc3Cl)OC2=O)cc1 | > 100 µM (inactive) | > 100 µM (inactive) | > 100 µM (inactive) | > 100 µM (inactive) | > 100 µM (inactive) | > 100 µM (inactive) | > 100 µM (inactive) | – | – |
| Cc1cc(N(CCC#N)S(C)(=O)=O)ccc1C=O | > 100 µM (inactive) | > 100 µM (inactive) | > 100 µM (inactive) | – | – | > 100 µM (inactive) | > 100 µM (inactive) | – | > 100 µM (inactive) |
| CCN(CC)c1ccc(C(=C2C=CC(=[N+](CC)CC)C=C2)c2ccccc2)cc1 | 0.0302 µM (active) | 0.0225 µM (active) | 0.0156 µM (active) | 0.0379 µM (active) | 0.0149 µM (active) | 0.044 µM (active) | 0.0304 µM (active) | – | – |
| COc1ccc(/C=N/N=C(\N)NO)cc1F | 9.02 µM (inactive) | 11.6 µM (inactive) | – | 21.6 µM (inactive) | 25.3 µM (inactive) | 97.3 µM (inactive) | 17.5 µM (inactive) | 14.5 µM (inactive) | 13.8 µM (inactive) |
| CCOC(=O)/N=c1\ss/c(=N\C(=S)N(C)C)n1-c1ccccc1 | > 10 µM (inactive) | 4.44 µM (inactive) | 0.453 µM (active) | 0.834 µM (active) | 28.8 µM (inactive) | 36.3 µM (inactive) | 2.15 µM (inactive) | – | > 10 µM (inactive) |
| CC1(C)O[C@H]2OC3CCC(=O)CC3(O)[C@H]2O1 (some centres not stated) | – | – | > 100 µM (inactive) | > 100 µM (inactive) | 0.507 µM (active) | > 100 µM (inactive) | – | – | – |
| CN(C)C(=N/O)/C(=N\O)N(C)C | > 100 µM (inactive) | > 100 µM (inactive) | > 100 µM (inactive) | > 100 µM (inactive) | > 100 µM (inactive) | > 100 µM (inactive) | > 100 µM (inactive) | > 100 µM (inactive) | > 100 µM (inactive) |
| O=c1c2cc(Br)ccc2[nH]c(=S)n1-c1ccc(Br)cc1 | > 100 µM (inactive) | > 100 µM (inactive) | > 100 µM (inactive) | > 100 µM (inactive) | – | > 100 µM (inactive) | – | – | > 100 µM (inactive) |
| O=C[C@]12CC=C3OC4OC5(CCCCC5)OC4[C@H]3[C@H]1C(=O)C=CC2=O (some centres not stated) | – | 19 µM (inactive) | 19.1 µM (inactive) | 23.1 µM (inactive) | 14.6 µM (inactive) | 14.2 µM (inactive) | 39.2 µM (inactive) | 35.6 µM (inactive) | – |
| CCCC/C=C/C=C/C=C/CCCCCCCC(=O)OCC(COC(=O)CCCCCCC/C=C/C1C=CC(CCCC)C(C(=O)O)C1C(=O)O)OC(=O)CCCCCCC/C=C/C=C/C=C/CCCC.OCCNCO (configuration not stated) | 20.9 µM (inactive) | 17.8 µM (inactive) | 10.9 µM (inactive) | 17.5 µM (inactive) | – | – | 16.3 µM (inactive) | – | 17.2 µM (inactive) |
| CCC(=O)Nc1nc2c(ncn2C2OC(COC(=O)CC)C(OC(=O)CC)C2OC(=O)CC)c(=O)[nH]1 (configuration not stated) | > 100 µM (inactive) | > 100 µM (inactive) | – | > 100 µM (inactive) | – | > 100 µM (inactive) | > 100 µM (inactive) | – | – |
| COc1ccc(/C=C2\SC(c3ccc(OC)cc3)N(NC(=O)Cc3ccccc3)C2=O)cc1 (configuration not stated) | – | > 100 µM (inactive) | > 100 µM (inactive) | > 100 µM (inactive) | – | – | > 100 µM (inactive) | – | > 100 µM (inactive) |
| O=[N+]([O-])c1cccc(C2=NN(c3ccccc3)C[N+](c3ccc(Br)cc3)=N2)c1 | > 100 µM (inactive) | 46.8 µM (inactive) | – | 70.8 µM (inactive) | > 100 µM (inactive) | 34.4 µM (inactive) | 77.4 µM (inactive) | – | 43.7 µM (inactive) |
| CCO[C@@H]1C2C=CC(C2)[C@H]1[N+](=O)[O-] (some centres not stated) | > 100 µM (inactive) | > 100 µM (inactive) | > 100 µM (inactive) | > 100 µM (inactive) | > 100 µM (inactive) | > 100 µM (inactive) | > 100 µM (inactive) | – | > 100 µM (inactive) |
| CCC(=O)OC1CCn2c1nc1c2C(=O)C(C)=C(N2CC2)C1=O (configuration not stated) | 0.233 µM (active) | 0.0933 µM (active) | 0.12 µM (active) | 0.146 µM (active) | 0.0345 µM (active) | 0.462 µM (active) | 0.045 µM (active) | – | 0.0439 µM (active) |
| C[C@@]12CCC(=O)c3coc(c31)C(=O)c1cc3c(cc12)C(=O)C=CC3=O [HELENAQUINONE] | > 86.5 µM (inactive) | 17.4 µM (inactive) | 14 µM (inactive) | 6.05 µM (inactive) | 18.9 µM (inactive) | 22 µM (inactive) | 15.5 µM (inactive) | – | 17.3 µM (inactive) |
| CCOC(=O)/C(=C/c1ccc(Cl)cc1)N(CC)CC | – | > 100 µM (inactive) | – | > 100 µM (inactive) | > 100 µM (inactive) | > 100 µM (inactive) | – | – | > 100 µM (inactive) |
| C=C(c1nc2ccc(Cl)cc2[nH]c1=O)C(O)c1ccc(C(O)C(=O)c2nc3ccc(Cl)cc3[nH]c2=O)cc1 (configuration not stated) | 62.4 µM (inactive) | 81.1 µM (inactive) | 35.4 µM (inactive) | > 100 µM (inactive) | > 100 µM (inactive) | > 100 µM (inactive) | > 100 µM (inactive) | > 100 µM (inactive) | – |
| Cc1nn2c(nc1=O)sc1ccc3ccccc3c12 | > 100 µM (inactive) | > 100 µM (inactive) | > 100 µM (inactive) | > 100 µM (inactive) | > 100 µM (inactive) | > 100 µM (inactive) | > 100 µM (inactive) | – | > 100 µM (inactive) |
| O=P(c1ccccc1)(c1ccccc1)C1CC=C2CCCCCC2C1 (configuration not stated) | > 10 µM (inactive) | 21.4 µM (inactive) | 24.5 µM (inactive) | 36 µM (inactive) | 33 µM (inactive) | 40.2 µM (inactive) | 27.4 µM (inactive) | 27.2 µM (inactive) | 19.2 µM (inactive) |

From ChEMBL document CHEMBL1201862, “PubChem BioAssay data set” (2004)
